{"source": "patent US20170266182A1", "about": "“Treatment of IgG-Immune Complex-Mediated Organ Damage” (The Brigham and Women's Hospital, Inc., priority 2014, published 2017)", "key": {"FcγRIIA [1]": {"tested_on": "FcγRIIA", "test": "Immobilized immune complex (IC)-induced ROS generation in FcγRIIA+/γ-/- mouse bone marrow neutrophils (high-throughput screen)", "format": "cell-based", "conditions": "for ROS RLU ratio: compound at 1.1 μM, mouse BMN ROS induced by immobilized IC", "procedure": "Screen of 8,483 compounds was done in collaboration with the Institute of Chemistry and Cell Biology Screening facility at Harvard Medical School (ICCB/Longwood). Each compound was dissolved in DMSO at a concentration of […]. For the primary screen, wells were coated with immune complexes as follows: 0.1 mg/mL poly-L-lysine (Sigma) followed by 2.5% glutaraldehyde were dispensed onto 384-well format black plate (Corning), and the plate was washed once with DDW and twice with PBS, incubated with 100 μL 1 mg/ml bovine serum albumin (BSA) followed by 100 μL 40 μg/mL rabbit anti-BSA antibody to generate in situ immune complexes (IC). Mature murine neutrophils isolated from the bone marrow of FcγRIIA+/γ^-/- mice as previously described, were suspended in 100 uM homovanillic acid/5 U/ml peroxidase IV (Sigma)/1 mM EDTA/HBSS (Thermo) assay solution (pH 7.5) and 3×10^4 cells in 30 μL were loaded per well into a 384-well format plate using a Wellmate automated dispenser (Thermo Scientific). Immediately after dispensing cells, ICCB library compounds dissolved in 33 nL DMSO were dispensed into wells using a Compound Transfer Robot (Epson). The plates were placed in a humidified incubator at 37 C for 60 mins and then fluorescence levels were read out at Ex/Em 321/421 nm with Envision2 (PerkinElmer). PP2 (Sigma), a Src inhibitor known to down-regulate FcγRIIA signal, and DMSO were used as positive and negative control, respectively. All the experiments were performed in duplicate.\nAn automated high-throughput drug screen in primary neutrophils from mice expressing FcγRIIA on neutrophils and lacking all their endogenous activating murine FcγRs (FcγRIIA^+/γ^-/-) was established to identify compounds that inhibit the activity of FcγRIIA. Immune complex (IC)-induced reactive oxygen species (ROS) generation served as our read-out of FcγRIIA activity. An appropriate positive (PP2, an inhibitor of the FcγR proximal Src-family kinase) and negative (DMSO, vehicle) control was included in the assay. The screen of 8,483 compounds, used at 10 μM in DMSO, yielded 84 hits (1% hit rate) that were defined as those that have an inhibitory potential that is ≧95% of PP2 (FIG. 1A). Of the 30 compounds cherry picked for a secondary screen, ten compounds were identified as having an ability to inhibit neutrophil FcyRIIA induced ROS generation at even lower concentrations (i.e., 1.1 μM or less) (Table 1)."}, "FcγRIIA [2]": {"tested_on": "FcγRIIA", "test": "FcγRIIA cross-linking induced ROS generation in FcγRIIA+/γ-/- mouse BMNs (luminol)", "format": "cell-based", "conditions": "100 nM, FIG. 4A", "procedure": "10^6 BMNs were suspended in PBS without Ca^2+/Mg^2+, and then incubated with 10 μg/ml mouse anti-hFcγRIIa (clone IV.3; StemCell Technologies) on ice for 30 minutes. After washing in PBS, cells were incubated with or without 500 ng/ml mGM-CSF (BioLegend) for 30 minutes. After pretreated with Bosutinib at indicated concentrations or DMSO at 37 C for 30 minutes, luminol (50 μM) in PBS with Ca^2+/Mg^2+ was added, followed immediately by the addition of goat anti-mouse F(ab′)2 (36 μg/ml; Jackson ImmunoResearch). ROS generation (expressed in relative light units) was continuously monitored over time using a 6-channel bioluminat LB-953 luminometer (Berthold). For human PMNs, 5×10^5 cells were analyzed without GM-CSF pretreatment."}, "neutrophils": {"tested_on": "neutrophils", "test": "Cell viability by Annexin V and propium iodide", "format": "cell-based", "conditions": "range of concentrations"}, "[3]": {"conditions": "mice, gavage; cited from earlier work"}, "[4]": {"tested_on": "FcγRIIA+/γ-/-/Mac-1-/- mice", "test": "Human lupus serum induced kidney injury model", "format": "in vivo, mouse", "procedure": "Human serum samples were obtained from the Lupus Clinic at the Beth Israel Deaconess Medical Center from patients with SLE diagnosed according to the classification criteria of the American College of Rheumatology as previously described^13. Informed consent was obtained from all patients and healthy donors under a Beth Israel Deaconess Medical Center Institutional Review Board-approved protocol. FcγRIIA+/γ^-/-/Mac1-mice were injected s.c. in both flanks with 2.5 μg human IgG (Jackson ImmunoResearch Laboratories) in CFA (Thermo Scientific and Difco) on day-3. On days 0 and 2, 200 μl sterile serum was injected i.v. The mice were given an oral administration of Bosutinib (150 mg/kg) or a vehicle solution every 24 hrs from day 0 to 14. Spot urine samples and peripheral blood were collected at indicated time points after human serum injection. Both kidneys from euthanized mice were harvested for histological analysis at day 10 or 14. […]"}}, "note": "pIC50: −log10 of the molar value.", "data": [{"smiles": "Cn1cc(C2=C(c3cn(CCCSC(=N)N)c4ccccc34)C(=O)NC2=O)c2ccccc21", "note": "[Ro 31-8220]", "values": [{"measurement": "ROS RLU ratio", "setting": "FcγRIIA [1]", "value": 0.778}]}, {"smiles": "Cc1n[nH]c2ccc(-c3cncc(OC[C@@H](N)Cc4c[nH]c5ccccc45)c3)cc12", "note": "[A-443654]", "values": [{"measurement": "ROS RLU ratio", "setting": "FcγRIIA [1]", "value": 0.266}]}, {"smiles": "Cc1cn(-c2cc(NC(=O)c3ccc(C)c(Nc4nccc(-c5cccnc5)n4)c3)cc(C(F)(F)F)c2)cn1", "note": "[Nilotinib]", "values": [{"measurement": "Neutrophil ROS generation induced by FcγRIIA cross linking", "setting": "FcγRIIA [2]", "value": "reduced"}, {"measurement": "Potency compared to Bosutinib in FcγRIIA cross linking ROS", "setting": "FcγRIIA [2]", "value": "lower"}]}, {"smiles": "CN(c1ccccc1CNc1nc(Nc2ccc3c(c2)CC(=O)N3)ncc1C(F)(F)F)S(C)(=O)=O", "note": "[PF431396]", "values": [{"measurement": "ROS RLU ratio", "setting": "FcγRIIA [1]", "value": 0.301}]}, {"smiles": "CN(C)CCCn1cc(C2=C(c3c[nH]c4ccccc34)C(=O)NC2=O)c2ccccc21", "note": "[GF109203X]", "values": [{"measurement": "ROS RLU ratio", "setting": "FcγRIIA [1]", "value": 0.338}]}, {"smiles": "COc1cc(Nc2c(C#N)cnc3cc(OCCCN4CCN(C)CC4)c(OC)cc23)c(Cl)cc1Cl", "note": "[Bosutinib]", "values": [{"measurement": "Cell viability", "setting": "neutrophils", "value": "did not affect cell viability"}, {"measurement": "Time of peak blood concentration", "setting": "[3]", "value": "2 to 4", "unit": "h"}, {"measurement": "ROS RLU ratio", "setting": "FcγRIIA [1]", "value": 0.033}, {"measurement": "pIC50", "setting": "FcγRIIA [1]; mouse BMNs, FIG. 1C", "value": "~7.30"}, {"measurement": "Total leukocyte and neutrophil counts versus vehicle", "setting": "[4]; hemocytometric analysis, day 14", "value": "comparable"}, {"measurement": "Hb", "setting": "[4]; peripheral blood, day 14, AVE", "value": 7.98, "unit": "g/dL"}, {"measurement": "Neu %", "setting": "[4]; peripheral blood, day 14, AVE", "value": 25.64, "unit": "%"}, {"measurement": "Neu total", "setting": "[4]; peripheral blood, day 14, AVE", "value": 0.7506, "unit": "K/ul"}, {"measurement": "Plt total", "setting": "[4]; peripheral blood, day 14, AVE", "value": 949.8, "unit": "K/ul"}, {"measurement": "RBC", "setting": "[4]; peripheral blood, day 14, AVE", "value": 7.98, "unit": "M/ul"}, {"measurement": "WBC total", "setting": "[4]; peripheral blood, day 14, AVE", "value": 2.656, "unit": "K/ul"}]}]}
